According to US20230227547A1, “ANTIBODY-PAYLOAD CONJUGATES WITH ENHANCED DELIVERY DOMAIN AND USES THEREOF” (IPROGEN BIOTECH INC., priority 2019, published 2023):

Columns and labels:
LnCap = assay: Delivery assay, Goat anti-human IgG-AlexaFluor 488 fluorescence microscopy, LnCap; format: cell-based; design: key to Delivery efficiency of mAb (i.e., mAb): +++: Strong Alexa Fluor 488 (cyan/green) fluorescent intensity; ++: Medium level of Alexa Fluor 488 (cyan/green) fluorescent intensity; +: Weak, but noticeable Alexa Fluor 488 (cyan/green) fluorescent intensity; -: No signal; conditions: Target cell LnCap; for Delivery efficiency of mAb (i.e., mAb): 100 nM, 3 hours; for Delivery enhancement: mAb-LL37 vs mAb
Procedure: (§1) Delivery assay. […] The culturing media containing the unbound antibodies were removed, and the MDA-MB-468 cells were washed with PBS. The adherent cells were treated with trypsin at 37 degree C for 1-2 minutes, neutralized in FACS buffer (2% v/v FBS, 2 mM EDTA, 0.05% w/v sodium azide in PBS), and transferred to FACS tubes on ice. The delivery of antibodies to cells was quantitated by measuring the red fluorescence intensity (i.e., PE-Texas Red color channel in the FACS detector) emitted fromZ-RFP bound to antibody. […] At the end of incubation, the adherent target cells were washed twice with ice-cold PBS, fixed with 2% (w/v) formaldehyde in PBS at room temperature for 15 minutes, and washed twice with PBS at room temperature. The fixed adherent target cells were then permeabilized with 0.05% (v/v) Tween-20 in PBS at room temperature for 15 minutes. The permeabilized cells were then incubated with 5% (v/v) FBS, 0.05% (v/v) Tween-20 in PBS at 37 degree Celsius incubator for 30 minutes. The secondary antibody, Goat anti-human IgG-AlexaFluor 488, was added to 5 ug/ml in 5% (v/v) FBS, 0.05% (v/v) Tween-20 in PBS, and incubated with the treated target cells at 37 degree Celsius incubator for 30 minutes. After incubation, the labelled cells were washed twice with PBS, and stored in storage buffer [5% (v/v) FBS in PBS] at 4 degree Celsius until fluorescence microscope imaging. The delivery of mAb and mAb-LL37 were determined qualitatively by estimating the green fluorescence intensity emitted from the AlexFluor488-labelled secondary antibody bound to mAb or mAb-LL37. […] However, Ramos [NT] No. ATCC CRL-1596, lot#70016960) was grown in suspension culture (i.e., in contrast to adherent cells), and the modification to the methods involves simply harvesting cells from the shaking culture flask for incubation with antibodies (or LL37-linked antibodies), and frequently pelleting down the target cells in the V-bottom 96-well polypropylene plate for downstream processes of PBS washing, fixing, permeabilizing, blocking, and the secondary antibody labelling. The secondary anti-human IgG-AlexaFluor488 labelled target cells were washed and resuspended in PBS, and transferred to the clear polystyrene 48-well plates for fluorescence microscope imaging.

T47D cells [1] = assay: Anti-HER2 mAb delivery efficiency using LL37-derived peptide constructs; format: cell-based, human; conditions: for Delivery efficiency: peptide conjugated to anti-HER2 mAb light chain, 100 nM Ab, Z-GFP (PEP#6, 35-43) or Goat anti-human IgG-AlexaFluor 488 (PEP#6, 47-94) fluorescence microscopy; for delivery enhancement (in words): peptide conjugated to anti-HER2 mAb
Procedure: LL37 and LL37-derived peptides were produced synthetically with two additional N-terminal glycine residues (e.g. as shown in SEQ ID NO:2 compared to SEQ ID NO: 1) to enable the sortase reaction. The LL37-derived peptides (PEP#35 to #43, SEQ ID NOs: 13-21) were all dissolved at 10 mg/ml in phosphate buffer saline (PBS) at room temperature, sterile-filtered, and stored at -20° C. freezer. PEP#48 (SEQ ID: 74), PEP#49 (SEQ ID No: 75), and PEP#60 (SEQ ID NO: 105) were dissolved in 20% (v/v) acetonitrile in PBS. PEP#47 (SEQ ID NO: 96), PEP#86 (SEQ ID NO: 78), PEP#98 (SEQ ID NO: 79), PEP#99 (SEQ ID NO: 80), PEP#102 (SEQ ID NO: 82), and PEP#104 (SEQ ID NO: 84) were dissolved in DMSO. PEP#50 (SEQ ID No: 76), PEP#51 (SEQ ID No: 97), PEP#55 (SEQ ID No: 77), PEP#58 (SEQ ID No: 103), PEP#59 (SEQ ID No: 104), PEP#61 (SEQ ID No: 106), PEP#62 (SEQ ID No: 107), PEP#63 (SEQ ID No: 108), PEP#64 (SEQ ID No: 109), PEP#66 (SEQ ID No: 110), and PEP#94 (SEQ ID No: 35) were all dissolved in PBS. […] The reaction was incubated inside a 37° C. incubator for 16 hours, and then EDTA (pH 7.5) was added to 10 mM in the reaction mixture to chelate calcium and stop the reaction.
Delivery assay: The following delivery assay method was used on the anti-HER2 mAbs conjugated to the PEP#6, #35, #36, #37, #38, #39, #40, #41, #42, and #43 described in Table 7. […] The plates were then removed from the incubator, and the culturing media was removed from the adherent cells. The adherent cells were washed gently with an equal volume of ice-cold PBS. Then, the PBS wash was replaced 250 µl of fresh PBS for fluorescence microscope imaging.
At the end of incubation, the adherent target cells were washed twice with ice-cold PBS, fixed with 2% (w/v) formaldehyde in PBS at room temperature for 15 minutes, and washed twice with PBS at room temperature. The fixed adherent target cells were then permeabilized with 0.05% (v/v) Tween-20 in PBS at room temperature for 15 minutes. The permeabilized cells were then incubated with 5% (v/v) FBS, 0.05% (v/v) Tween-20 in PBS at 37 degree Celsius incubator for 30 minutes. The secondary antibody, Goat anti-human IgG-AlexaFluor 488, was added to 5 ug/ml in 5% (v/v) FBS, 0.05% (v/v) Tween-20 in PBS, and incubated with the treated target cells at 37 degree Celsius incubator for 30 minutes. After incubation, the labelled cells were washed twice with PBS, and stored in storage buffer [5% (v/v) FBS in PBS] at 4 degree Celsius until fluorescence microscope imaging. The delivery of mAb and mAb-LL37-derived peptides were determined qualitatively by estimating the green fluorescence intensity emitted from the AlexFluor488-labelled secondary antibody bound to mAb or mAb-LL37-derived peptides.

T47D cells [2] = assay: Cell viability assay with XTT, T47D; format: cell-based, human; conditions: XTT (Taxol ADCs: 3 hours)
Procedure: The cell assay was done by treating/incubating the T47D cells with antibody drug conjugates for 3 hours in the 37 degree C tissue culture incubator. After treatment, cell viability was determined by XTT assay as described above.
(§2) After treatment, cell viability was determined by XTT assay as described above.

RT4V6 cells = assay: Cell viability assay with XTT, RT4V6; format: cell-based, human; conditions: 72 hours treatment
Procedure: Cell viability assay with XTT. On day 1, cells (RT4V6, Neuro2A) were seeded at about 0.02 to 0.025 million cells per ml concentration and incubated overnight in the 37° C. incubator. […] XTT and PMS solutions were freshly prepared immediately before the assay, and were used right away. XTT/PMS were added to the treated cells to start the XTT reaction. […] Spectral absorbance was measured at 475 nm (XTT) and 660 nm (background), and viability calculated from the spectral absorbance difference at 475 nm and 660 nm.
Cell assay was done by treating/incubating the RT4V6 cells with antibody drug conjugates for 72 hours in the 37 degree C tissue culture incubator. After treatment, cell viability was determined by XTT assay as described above.
The cell assay was done by treating/incubating the RT4V6 cells with antibody drug conjugates for 72 hours in the 37 degree C tissue culture incubator. After treatment, cell viability was determined by XTT assay as described above.
as §2
(§3) Cell viability assay with XTT. […] After treatment, cell viability was determined by XTT assay as described above.

OVCAR3 cells = assay: Cell viability assay with XTT, OVCAR3; format: cell-based, human; conditions: 72 hours (FIG. 10: 24 hours) treatment
Procedure: Cell viability assay with XTT. On day 1, cells (OVCAR3) were seeded at about 0.02 to 0.025 million cells per ml concentration and incubated overnight in the 37 degree Celsius incubator. […] One set was incubated for 24 hours, and another set for 72 hours. On day 3, the set with 24 hours, the treatment were removed, and replaced with fresh growth media, and continued incubation for the next 48 hours (for the total of 72 hours). On day 5, the set with both 24 hours and 72 hours treatments were analyzed. […] XTT and PMS solutions were freshly prepared immediately before the assay, and were used right away. XTT/PMS were added to the treated cells to start the XTT reaction. […] Spectral absorbance was measured at 475 nm (XTT) and 660 nm (background), and viability calculated from the spectral absorbance difference at 475 nm and 660 nm.
The cell assay was done by treating/incubating the OVCAR3 cells with antibody drug conjugates for 3 hours in the 37 degree C tissue culture incubator. After treatment, cell viability was determined by XTT assay as described above.
as §2
Cell viability assay was carried out with XTT as as described above.
as §3

RT4v6 = assay: Delivery assay, Goat anti-human IgG-AlexaFluor 488 fluorescence microscopy, RT4v6; format: cell-based; design: key to Delivery efficiency of mAb (i.e., mAb): +++: Strong Alexa Fluor 488 (cyan/green) fluorescent intensity; ++: Medium level of Alexa Fluor 488 (cyan/green) fluorescent intensity; +: Weak, but noticeable Alexa Fluor 488 (cyan/green) fluorescent intensity; -: No signal; conditions: Target cell RT4v6; for Delivery enhancement: mAb-LL37 vs mAb
Procedure: as §1, with “No. ATCC CRL-1596, lot#70016960) was grown in suspension culture (i.e., in contrast to adherent cells), and the modification to the methods involves simply harvesting cells from the shaking culture flask for incubation with antibodies (or LL37-linked antibodies), and frequently pelleting down the target cells in the V-bottom 96-well polypropylene plate for downstream processes of PBS washing, fixing, permeabilizing, blocking, and the secondary antibody labelling.” left out

OVCAR3 = assay: Delivery assay, Goat anti-human IgG-AlexaFluor 488 fluorescence microscopy, OVCAR3; format: cell-based; design: key to Delivery efficiency of mAb (i.e., mAb): +++: Strong Alexa Fluor 488 (cyan/green) fluorescent intensity; ++: Medium level of Alexa Fluor 488 (cyan/green) fluorescent intensity; +: Weak, but noticeable Alexa Fluor 488 (cyan/green) fluorescent intensity; -: No signal; conditions: Target cell OVCAR3; for Delivery enhancement: mAb-LL37 vs mAb
Procedure: as §1, with “No. ATCC CRL-1596, lot#70016960) was grown in suspension culture (i.e., in contrast to adherent cells), and the modification to the methods involves simply harvesting cells from the shaking culture flask for incubation with antibodies (or LL37-linked antibodies), and frequently pelleting down the target cells in the V-bottom 96-well polypropylene plate for downstream processes of PBS washing, fixing, permeabilizing, blocking, and the secondary antibody labelling.” left out

CD20-positive RL cells = assay: Delivery assay, Z-RFP FACS, RL cells; format: cell-based, human; conditions: 0.5 nM, 5 nM, 50 nM; 30 minutes
Procedure: For FIG. 30 Panel D, Ofatumumab-LL37 was made from Ofatumumab (SEQ ID NOs: 40 and 41) in a sortase-catalyzed reaction to GG-LL37 peptide (SEQ ID NO: 2), and purified on Protein A chromatography. For cell delivery assay, Ofatumumab/Ofatumumab-LL37 and equimolar equimolar number of Z-RFP were added to RL cells at described final concentration (i.e., 0.5 nM, 5 nM, and 50 nM) and incubated for 30 minutes. The liquid suspension culture was gently spun in a microcentrifuge at 2000 rpm for 4 minutes, and the clear supernatant was removed, and the cell pellet was washed in PBS and resuspended in FACS buffer (1XPBS, 2% FBS, 1 mM EDTA, 0.02% sodium azide) for analysis by FACS (Texas Red channel).

Ramos = assay: Delivery assay, Goat anti-human IgG-AlexaFluor 488 fluorescence microscopy, Ramos; format: cell-based; design: key to Delivery efficiency of mAb (i.e., mAb): +++: Strong Alexa Fluor 488 (cyan/green) fluorescent intensity; ++: Medium level of Alexa Fluor 488 (cyan/green) fluorescent intensity; +: Weak, but noticeable Alexa Fluor 488 (cyan/green) fluorescent intensity; -: No signal
Procedure: Delivery assay. […] The culturing media containing the unbound antibodies were removed, and the MDA-MB-468 cells were washed with PBS. The adherent cells were treated with trypsin at 37 degree C for 1-2 minutes, neutralized in FACS buffer (2% v/v FBS, 2 mM EDTA, 0.05% w/v sodium azide in PBS), and transferred to FACS tubes on ice. The delivery of antibodies to cells was quantitated by measuring the red fluorescence intensity (i.e., PE-Texas Red color channel in the FACS detector) emitted fromZ-RFP bound to antibody. […] At the end of incubation, the adherent target cells were washed twice with ice-cold PBS, fixed with 2% (w/v) formaldehyde in PBS at room temperature for 15 minutes, and washed twice with PBS at room temperature. […] After incubation, the labelled cells were washed twice with PBS, and stored in storage buffer [5% (v/v) FBS in PBS] at 4 degree Celsius until fluorescence microscope imaging. The delivery of mAb and mAb-LL37 were determined qualitatively by estimating the green fluorescence intensity emitted from the AlexFluor488-labelled secondary antibody bound to mAb or mAb-LL37. […] The secondary anti-human IgG-AlexaFluor488 labelled target cells were washed and resuspended in PBS, and transferred to the clear polystyrene 48-well plates for fluorescence microscope imaging.

Anti-PSMA, hj591: Anti-PSMA mAb, SEQ ID NOs: 66 and 68
Delivery efficiency of mAb (i.e., mAb) (LnCap): ++
Delivery enhancement (LnCap): YES
Delivery enhancement (LnCap; listed as hj591): greatly enhances the delivery

Citatuzumab [Anti-EpCAM, Citatuzumab]
Delivery efficiency of mAb (i.e., mAb) (LnCap): ++
Delivery enhancement (LnCap): YES

EFKRIVQRIKDFLRNLVPRT [PEP#64]
Delivery efficiency (T47D cells [1]): +

EKIGKEFKRIVQRIKDFLRN [PEP#63]
Delivery efficiency (T47D cells [1]): +

FRKSKEKIGKFFKRIVQRIFDFLRNLVMMWLL [PEP#48]
Delivery efficiency (T47D cells [1]): +++ (Same as LL37)

GSIGKEFKRIVQRIKDFLR [PEP#66]
Delivery efficiency (T47D cells [1]): ++ (Solid enhancement in delivery, but at lower efficiency than LL37)

IGKEFKRIVQRI [PEP#40]
Delivery efficiency (T47D cells [1]): +

IGKEFKRIVQRIKDFLRNLVPRTES [PEP#36]
Delivery efficiency (T47D cells [1]): ++ (Solid enhancement in delivery, but at lower efficiency than LL37)
killing of T47D / cell viability (in words) (T47D cells [2]): enhanced the anti-HER2 mAb-MMAE drug conjugate to kill T47D cells

IVQRIKDFLRNLVPRTES [PEP#38]
Delivery efficiency (T47D cells [1]): ++ (Solid enhancement in delivery, but at lower efficiency than LL37)
killing of T47D / cell viability (in words) (T47D cells [2]): enhanced the anti-HER2 mAb-MMAE drug conjugate to kill T47D cells

KEFKRIVQRIKDFLRGGGGSRLFDKIRQVIRKFEKG [PEP#55]
Delivery efficiency (T47D cells [1]): +++ (Same as LL37)
killing of RT4V6 / cell viability (in words) (RT4V6 cells): strongly enhance ADC killing
killing of OVCAR3 / cell viability (in words) (OVCAR3 cells): strongly enhance ADC killing

KRIVQRIKDFL [PEP#60]
Delivery efficiency (T47D cells [1]): +

KSKEKIGKEFKRIVQ [PEP#42]
Delivery efficiency (T47D cells [1]): +

LLGDFFRASKEKIGKEFAAIVQAIKDFLANLVPATES [PEP#50]
delivery enhancement (in words) (T47D cells [1]): decrease in, but not abrogation of, delivery enhancement
Delivery efficiency (T47D cells [1]): +

LLGDFFRKSKEKIGKEFKRIVQRIK [PEP#35]
Delivery efficiency (T47D cells [1]): +

LLGDFFRKSKEKIGKEFKRIVQRIKDFLRNLVPRTESC [PEP#94]
Delivery efficiency (T47D cells [1]): +++ (Same as LL37)

LLGDFFRQSKEKIGKEFQQIVQQIKDFLQNLVPQTES [PEP#49]
delivery enhancement (in words) (T47D cells [1]): abolished the antibody delivery enhancement

Labetuzumab [Anti-CEACAM5, Labetuzumab]
Delivery efficiency of mAb (i.e., mAb) (LnCap): +
Delivery enhancement (LnCap): YES
Delivery enhancement (LnCap; listed as labetuzumab): significantly increases the delivery

Lifastuzumab [Anti-NaPi2b, Lifastuzumab]
Delivery enhancement (RT4v6): significantly increases the delivery
Delivery efficiency of mAb (i.e., mAb) (OVCAR3; 100 nM, 3 hours): +
Delivery enhancement (OVCAR3): YES
Delivery enhancement (OVCAR3; listed as lifastuzumab): significantly increases the delivery

MMWLL [PEP#47, reference compound]
delivery enhancement (in words) (T47D cells [1]): confirmed to not enhance antibody delivery to target cells alone

Ofatumumab-LL37
targeted delivery (in words) (CD20-positive RL cells): more efficient than anti-CD20 mAb (i.e., Ofatumumab) at targeted delivery

Rituximab [Anti-CD20, Rituximab]
Delivery efficiency of mAb (i.e., mAb) (Ramos; Target cell Ramos (suspension culture)): ++
Delivery enhancement (Ramos; Target cell Ramos, mAb-LL37 vs mAb): YES

Vofatamab [Anti-FGFR3, Vofatamab]
Delivery efficiency of mAb (i.e., mAb) (RT4v6; 100 nM, 3 hours): +
Delivery enhancement (RT4v6): YES
